“Also recorded” adds a separate entry of the source.
Legend:
APP/PS1 transgenic mice = test: Morris water maze in APP/PS1 transgenic mice; assay type: in vivo, mouse; settings: 0.9 mg/kg once every 24 hours
Description: (§1) Animals and treatments: Male and female human WT alpha-synuclein over-expressing transgenic mice^32 at 6 months of age were given vehicle (10% beta-cyclodextrin) or LNK-754-TS (0.09, 0.9 and 9 mg/kg) per oral gavage twice daily for 3 months or animals at 7 months of age were given vehicle (2.5% beta-cyclodextrin) or LNK-754-TS (2 mg/kg) once every three days for 3 months. Male and female TAU transgenic mice expressing TAU441 bearing the missense mutations V337M^50 and R406W under the control of the murine Thy-1 promoter with a CB6xC57BL/6 background were 5 months old at the time when the oral treatment for three months with LNK-754-TS (0.9 and 0.09 mg/kg) as well as vehicle (2.5% beta-cyclodextrin) was started. Female human APP/PS1 (APP (London V7171)/PS1(A246E)) over-expressing transgenic mice were treated with LNK-754-TS (0.9 mg/kg) or vehicle (2.5% beta-cyclodextrin) for 2 months or 12 days.
Morris water maze (MWM) analysis of cognitive performance: In APP/PS1 transgenic animals, swimming behavior in a Morris Water Maze was videotaped and analyzed (Ethovision, Noldus, Wageningen, Netherlands). For mice, a place navigation test was used to locate the hidden platform in five blocks of three trials over three consecutive days. […] The time each mouse needed for location of the platform was measured. […] The time and path length each rat needed to locate the platform was measured. […]

p70 S6 kinase (S6K) = test: p70S6K phosphorylation in SH-SY5Y cells; assay type: cell-based, human; settings: FIG. 8f
TAU = test: TAU441 transgenic mice, TAU immunoreactivity (AT180, HT7) in the amygdala; assay type: in vivo, mouse; settings: 0.09 mg/kg once every 24 hours, three months
Description: as §1
Immunohistochemistry and quantification of stained cells: For evaluation of α-synuclein immunoreactivity (IR), 5 sagittal cryo-cut sections (10 μm slice thickness) from five different layers were used for counting of IR cells in the cortex and hippocampus. […] IR positive cells were quantified using specialized image analysis software (Image Pro Plus, version 4.5.1.29). […] Images were evaluated with ImageProPlus (version 6.2) image analysis software. For APP/PS1 transgenic animals sagittal hemisections (40 μm) were collected and processed for Aβ immunohistochemistry using an 6E10 antibody, Thioflavin-S staining Primary antibodies were detected by the ABC method. […]
This study was designed to evaluate the effects of a treatment with LNK-754-TS dosed at 0.09 mg per kg on behavior, TAU and TAU-pT231 levels, and brain morphology of TAU441 Tg mice. Histological evaluations were performed to quantitatively evaluate TAU pathology. TAU depositions were determined using the monoclonal TAU-antibodies AT180 and HT7. […]

[1] = system: 3T3 H-ras (61L) xenograft; settings: BID for 10 days; cited from earlier work
Ras = test: Soluble/cytoplasmic Ras level in frontal cortex of alpha-synuclein transgenic mice (immunoblot); assay type: in vivo, mouse; settings: 0.09 mg/kg or 9 mg/kg b.i.d., 3 months
Description: The level of inhibition of Ras in brain by LNK-754-TS, dosed at an efficacious dose for efficacy in animal models of proteinopathy-dependent neurodegeneration, was investigated. Alpha-synuclein transgenic mice were treated for 3 months b.i.d. with vehicle or LNK-754-TS at 0.09 mg/kg or 9 mg/kg. Cortical tissue was extracted and homogenized, followed by isolation of soluble/cytosolic proteins in detergent-free buffer (50 mM Tris-HCl pH 7.4, 140 mM NaCl, 2 mM EDTA, Protease inhibitor cocktail) by centrifugation. 15 micrograms of protein lysate was analyzed per lane of SDS-PAGE gel, and immunoblotted for Ras and actin (FIG. 6). Densitometry was used to quantify the Ras/actin ratio for each sample, and results were plotted (FIG. 7). […] This contrasts with what is observed in xenograft cancer models, where inhibition of Ras farnesylation by high dose FTIs is directly correlated with efficacy (FIG. 3 and Example 3).

## C#Cc1cccc(-c2cc(=O)n(C)c3ccc([C@](O)(c4ccc(Cl)cc4)c4cncn4C)cc23)c1 [LNK-754-TS, (R)-6-[(4-chlorophenyl)-hydroxyl-(1-methyl-1-H-imidazol-5-yl)-methyl]-4-(3-ethynylphenyl)-1-methyl-2-(1H)-quinonlinone (2S,3S)-dihydroxybutanedioate]
APP/PS1 transgenic mice; 12 days
  cognitive performance in Morris water maze vs. vehicle: significant cognitive improvement
APP/PS1 transgenic mice; two months
  cognitive performance in Morris water maze vs. vehicle: performed significantly better; also recorded: significant cognitive improvement
p70 S6 kinase (S6K)
  decrease / inhibition of p70S6K phosphorylation: did not inhibit
TAU
  number of AT180 immunoreactive (affected) cells in the amygdala: comparable to those of baseline animals
  phosphorylated Tau (AT180) immunoreactivity in the amygdala vs. vehicle: significantly decreased; also recorded: significant reduction; also recorded: significantly reduced
  total Tau (HT7) immunoreactivity in the amygdala vs. vehicle: not significantly reduced; also recorded: did not change
[1]
  dose required for suppression of tumor growth: at least 25 mg per kg
Ras
  effect on Ras farnesylation in brain: no significant effect
  soluble Ras/actin level in cortex vs. vehicle: No significant differences
